From article PMC11187827 (Journal of natural products, 2020)

Experiments:
[1] = target: SERT (serotonin transporter) (Homo sapiens, UniProt P31645); assay: receptor binding assay
[2] = target: NET (norepinephrine transporter) (Homo sapiens, UniProt P23975); assay: receptor binding assay
[3] = target: DAT (dopamine transporter) (Homo sapiens, UniProt Q01959); assay: receptor binding assay
[4] = target: T1, sigma-2 receptor (σ 2) (Rattus norvegicus, UniProt Q5U3Y7); assay: receptor binding assay
T1 sequence (Q5U3Y7 1-176): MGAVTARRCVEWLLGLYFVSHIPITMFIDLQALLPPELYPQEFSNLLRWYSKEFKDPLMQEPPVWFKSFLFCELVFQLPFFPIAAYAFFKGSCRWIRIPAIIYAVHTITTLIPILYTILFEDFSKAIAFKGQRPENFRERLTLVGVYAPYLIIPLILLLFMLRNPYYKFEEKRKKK

[5] = test system: male Swiss Webster mice; assay: forced-swim test; assay type: in vivo, mouse; conditions: 20 mg/kg, i.p., relative to desipramine (20 mg/kg)
[6] = test system: male Swiss Webster mice; assay: locomotor activity test; assay type: in vivo, mouse; conditions: 20 mg/kg, i.p.

Sequence of DAT (dopamine transporter) (Q01959 whole entry, species assumed): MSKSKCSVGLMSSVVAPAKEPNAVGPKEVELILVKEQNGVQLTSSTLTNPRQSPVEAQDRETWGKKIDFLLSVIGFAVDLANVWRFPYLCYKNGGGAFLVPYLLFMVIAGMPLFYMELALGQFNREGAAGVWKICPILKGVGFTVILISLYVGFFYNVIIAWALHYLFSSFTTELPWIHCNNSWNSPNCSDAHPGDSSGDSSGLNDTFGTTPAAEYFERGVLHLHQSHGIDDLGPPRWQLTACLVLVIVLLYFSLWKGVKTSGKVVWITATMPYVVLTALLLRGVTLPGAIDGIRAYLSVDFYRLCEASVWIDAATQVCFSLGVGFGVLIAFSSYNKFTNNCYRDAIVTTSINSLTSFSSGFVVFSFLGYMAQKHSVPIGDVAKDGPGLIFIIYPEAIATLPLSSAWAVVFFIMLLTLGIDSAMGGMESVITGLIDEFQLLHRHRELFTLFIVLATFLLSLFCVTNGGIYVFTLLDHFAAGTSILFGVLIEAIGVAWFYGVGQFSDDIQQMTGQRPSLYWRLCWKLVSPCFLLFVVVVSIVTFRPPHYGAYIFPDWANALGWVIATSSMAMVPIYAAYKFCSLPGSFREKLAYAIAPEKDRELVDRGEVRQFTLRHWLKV
Sequence of SERT (serotonin transporter) (P31645 whole entry, species assumed): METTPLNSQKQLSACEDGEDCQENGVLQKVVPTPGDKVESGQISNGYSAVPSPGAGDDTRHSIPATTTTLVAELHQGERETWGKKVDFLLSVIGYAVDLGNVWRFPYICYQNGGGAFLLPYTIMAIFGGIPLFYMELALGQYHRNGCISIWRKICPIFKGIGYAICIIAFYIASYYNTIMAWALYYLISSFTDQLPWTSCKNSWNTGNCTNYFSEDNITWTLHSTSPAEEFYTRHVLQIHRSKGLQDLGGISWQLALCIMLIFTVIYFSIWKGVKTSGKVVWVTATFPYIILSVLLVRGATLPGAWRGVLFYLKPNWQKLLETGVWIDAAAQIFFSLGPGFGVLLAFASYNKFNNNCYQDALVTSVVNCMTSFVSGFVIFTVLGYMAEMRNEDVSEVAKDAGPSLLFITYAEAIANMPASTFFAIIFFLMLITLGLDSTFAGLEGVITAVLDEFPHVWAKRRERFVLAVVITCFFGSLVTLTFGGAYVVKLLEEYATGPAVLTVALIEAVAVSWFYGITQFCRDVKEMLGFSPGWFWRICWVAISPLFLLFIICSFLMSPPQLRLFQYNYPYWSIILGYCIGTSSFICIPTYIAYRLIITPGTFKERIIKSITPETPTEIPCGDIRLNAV
Sequence of NET (norepinephrine transporter) (P23975 whole entry): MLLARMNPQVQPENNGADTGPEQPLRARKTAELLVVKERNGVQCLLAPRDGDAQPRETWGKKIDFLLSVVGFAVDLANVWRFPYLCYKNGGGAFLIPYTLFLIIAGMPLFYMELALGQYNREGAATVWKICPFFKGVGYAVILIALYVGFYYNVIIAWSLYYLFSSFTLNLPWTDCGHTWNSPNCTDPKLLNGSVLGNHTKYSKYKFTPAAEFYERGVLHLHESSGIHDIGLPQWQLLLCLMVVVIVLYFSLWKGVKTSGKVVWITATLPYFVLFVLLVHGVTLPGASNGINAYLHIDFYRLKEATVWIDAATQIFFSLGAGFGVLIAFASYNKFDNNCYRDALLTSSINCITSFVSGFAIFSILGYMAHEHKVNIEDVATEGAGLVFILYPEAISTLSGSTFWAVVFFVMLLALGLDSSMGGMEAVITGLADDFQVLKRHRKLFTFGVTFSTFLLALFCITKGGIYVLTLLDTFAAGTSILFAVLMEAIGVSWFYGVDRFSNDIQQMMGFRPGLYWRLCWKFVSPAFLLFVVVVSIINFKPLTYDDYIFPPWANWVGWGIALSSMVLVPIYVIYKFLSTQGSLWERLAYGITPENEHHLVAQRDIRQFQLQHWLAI

Cc1nccc2c1C(C)(C)Nc1cc(Br)ccc1-2 [Veranamine] was tested, and the “affinity for serotonin transporter” value [1] was “no affinity”, the “affinity for norepinephrine transporter” value [2] was “no affinity” and the “affinity for dopamine transporter” value [3] was “no affinity”. For the same compound, the “binding to the sigma-2 receptor” value [4] was “did not bind”, the “immobility time in mouse forced-swim test” value [5] was “decreasing the immobility time significantly” and the “locomotor activity (nonspecific stimulant action)” value [6] was “did not demonstrate nonspecific stimulant action”.
